Data on 17 compounds can be found in ChEMBL document CHEMBL5465560, “Selectivity Literature for EUbOPEN Chemogenomic Library” (2024).

In assay [1] the target is G protein-coupled receptor kinase 4 (Homo sapiens) (UniProt P32298). As to the kind of experiment: Selectivity interaction (ProQinase) EUB0000171b GRK4.
Assay [2] has as its target Cyclin-dependent kinase 18 (Homo sapiens) (UniProt Q07002). The conditions noted are these: at 10 µM.
Assay [3] has as its target Serine/threonine-protein kinase pim-3 (Homo sapiens) (UniProt Q86V86). As to the kind of experiment: Selectivity interaction (Ambit KINOMEscan and KiNATiv profiling in Jurkat cells) EUB0000090b PIM3. Format: cell-based. The conditions noted are these: at 1 µM.
Assay [4] deals with Interleukin-1 receptor-associated kinase 1 (Homo sapiens) (UniProt P51617). In words: Selectivity interaction (Ambit KINOMEscan and KiNATiv profiling in Jurkat cells) EUB0000090b IRAK1. The format is cell-based. Conditions: at 1 µM.
Assay [5] deals with BDNF/NT-3 growth factors receptor (Homo sapiens) (UniProt Q16620). Conditions: at 10 µM.
Assay [6] deals with Mitogen-activated protein kinase kinase kinase 20 (Homo sapiens) (UniProt Q9NYL2). As to the kind of experiment: Selectivity interaction (KinomeScan (DiscoverX)) EUB0000092b MAP3K20. Conditions: at 10 µM.
Assay [7] deals with Cyclin-dependent kinase 11B (Homo sapiens) (UniProt P21127). As to the kind of experiment: Selectivity interaction (KinomeScan (DiscoverX)) EUB0000092b CDK11B. Conditions: at 10 µM.
In assay [8] the target is Macrophage-stimulating protein receptor (Homo sapiens, UniProt Q04912). As to the kind of experiment: Selectivity interaction (KinomeScan (DiscoverX)) EUB0001049a MST1R. Conditions: at 1 µM.
The target in assay [9] is Tyrosine-protein kinase CSK (Homo sapiens) (UniProt P41240). In words: Selectivity interaction (KinomeScan (DiscoverX)) EUB0001049a CSK. Conditions: at 1 µM.
In assay [10] the target is Homeodomain-interacting protein kinase 3 (Homo sapiens, UniProt Q9H422). As to the kind of experiment: Selectivity interaction (Enzymatic assay (Eurofins)) EUB0001049a HIPK3.
The target of assay [11] is Tyrosine-protein kinase JAK2 (Homo sapiens, UniProt O60674). In words: Selectivity interaction (KinomeScan (DiscoverX)) EUB0000695a JAK2. The conditions noted are these: at 100 nM.
For assay [12], the target named is Serine/threonine-protein kinase 24 (Homo sapiens) (UniProt Q9Y6E0). In words: Selectivity interaction (KinomeScan (DiscoverX)) EUB0000695a STK24. Conditions: at 100 nM.
The target in assay [13] is Type-1 angiotensin II receptor (Homo sapiens) (UniProt P30556). As to the kind of experiment: Selectivity interaction (Eurofins CEREP Diversity Profile (receptors and ion channels)) EUB0000279b AGTR1. Conditions: at 10 µM.
The target in assay [14] is Serine/threonine-protein kinase B-raf (Homo sapiens) (UniProt P15056). As to the kind of experiment: (§1) Selectivity interaction (KinomeScan (DiscoverX)) EUB0000045b BRAF.
The test system of assay [15] is Serine/threonine-protein kinase B-raf (Homo sapiens), P15056 [V600E]. The description is as §1.
Assay [16] concerns the target Misshapen-like kinase 1 (Homo sapiens, UniProt Q8N4C8). In words: Selectivity interaction (KinomeScan (DiscoverX)) EUB0000045b MINK1.
The target in assay [17] is T1, Phosphatidylinositol 5-phosphate 4-kinase type-2 gamma (Homo sapiens) (UniProt Q8TBX8).
T1 sequence (whole entry): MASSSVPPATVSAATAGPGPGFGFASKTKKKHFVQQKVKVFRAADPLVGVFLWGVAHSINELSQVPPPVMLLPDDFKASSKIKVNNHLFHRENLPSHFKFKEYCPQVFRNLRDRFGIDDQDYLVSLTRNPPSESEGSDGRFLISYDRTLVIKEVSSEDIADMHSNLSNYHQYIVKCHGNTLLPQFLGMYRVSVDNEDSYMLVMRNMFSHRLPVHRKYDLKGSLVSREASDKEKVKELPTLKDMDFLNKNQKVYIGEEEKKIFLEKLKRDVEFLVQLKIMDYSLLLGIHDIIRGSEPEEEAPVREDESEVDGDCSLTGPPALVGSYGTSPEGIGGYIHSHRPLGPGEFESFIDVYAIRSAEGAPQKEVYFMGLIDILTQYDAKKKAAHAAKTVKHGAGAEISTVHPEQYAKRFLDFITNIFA
In words: Selectivity interaction (KinomeScan (DiscoverX)) EUB0000666a PIP4K2C. The conditions noted are these: at 10 µM.

Assay [18] addresses Hepatocyte growth factor receptor (Homo sapiens, UniProt P08581). As to the kind of experiment: (§2) Selectivity interaction (Kinase panel (Z-LYTE Assay)) EUB0001632a MET. The conditions noted are these: at 10 µM.
The subject of assay [19] is Hepatocyte growth factor receptor (Homo sapiens), P08581 [M1250T]. The description is as §2. Conditions: at 10 µM.
Assay [20] deals with Cyclin-dependent kinase 7 (Homo sapiens, UniProt P50613). As to the kind of experiment: Selectivity interaction (KinomeScan (DiscoverX)) EUB0000607a CDK7. Conditions: at 10 µM.
Assay [21] deals with Dual specificity mitogen-activated protein kinase kinase 1 (Homo sapiens, UniProt Q02750). As to the kind of experiment: Selectivity interaction (ActivX KiNativ screen (kinase selectivity in THP-1 cell lysates)) EUB0000639a MAP2K1. The conditions noted are these: lysate, at 0.2 µM. Format: subcellular.
For assay [22], the target named is T2, Phosphatidylinositol 5-phosphate 4-kinase type-2 beta (Homo sapiens) (UniProt P78356).
T2 sequence (whole entry): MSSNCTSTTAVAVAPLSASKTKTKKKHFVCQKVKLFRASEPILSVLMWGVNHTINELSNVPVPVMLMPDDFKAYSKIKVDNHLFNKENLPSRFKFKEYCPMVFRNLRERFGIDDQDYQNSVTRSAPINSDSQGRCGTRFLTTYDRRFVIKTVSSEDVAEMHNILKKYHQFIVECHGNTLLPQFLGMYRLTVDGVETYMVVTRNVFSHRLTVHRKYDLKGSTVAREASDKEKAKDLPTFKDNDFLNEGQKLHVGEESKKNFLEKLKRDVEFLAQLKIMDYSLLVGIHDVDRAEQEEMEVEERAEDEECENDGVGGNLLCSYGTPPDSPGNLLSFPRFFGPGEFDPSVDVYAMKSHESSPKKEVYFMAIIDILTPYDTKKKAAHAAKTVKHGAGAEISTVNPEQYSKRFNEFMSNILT
As to the kind of experiment: Selectivity interaction (ActivX KiNativ screen (kinase selectivity in THP-1 cell lysates)) EUB0000639a PIP4K2B. The format is subcellular. Conditions: lysate.

Assay [23] has as its target Dual specificity protein kinase CLK3 (Homo sapiens, UniProt P49761). In words: Selectivity interaction (Kinase panel (Invitrogen)) EUB0000639a CLK3. The conditions noted are these: at 200 nM.
The target in assay [24] is Glycogen synthase kinase-3 beta (Homo sapiens, UniProt P49841).
Assay [25] concerns the target Calcium/calmodulin-dependent protein kinase type 1G (Homo sapiens) (UniProt Q96NX5). As to the kind of experiment: Selectivity interaction (KinomeScan (DiscoverX)) EUB0000229b CAMK1G. The conditions noted are these: at 10 µM.
For assay [26], the target named is Calcium/calmodulin-dependent protein kinase type II subunit alpha (Homo sapiens, UniProt Q9UQM7). As to the kind of experiment: Selectivity interaction (KinomeScan (DiscoverX)) EUB0000595a CAMK2A. The conditions noted are these: at 10 µM.
In assay [27] the target is Mitogen-activated protein kinase 4 (Homo sapiens) (UniProt P31152). As to the kind of experiment: Selectivity interaction (KinomeScan (DiscoverX)) EUB0000618a MAPK4. The conditions noted are these: at 10 µM.

The structures appear in SMILES notation.

Sequence of Serine/threonine-protein kinase B-raf (Homo sapiens), P15056 [V600E] (P15056 whole entry V600E): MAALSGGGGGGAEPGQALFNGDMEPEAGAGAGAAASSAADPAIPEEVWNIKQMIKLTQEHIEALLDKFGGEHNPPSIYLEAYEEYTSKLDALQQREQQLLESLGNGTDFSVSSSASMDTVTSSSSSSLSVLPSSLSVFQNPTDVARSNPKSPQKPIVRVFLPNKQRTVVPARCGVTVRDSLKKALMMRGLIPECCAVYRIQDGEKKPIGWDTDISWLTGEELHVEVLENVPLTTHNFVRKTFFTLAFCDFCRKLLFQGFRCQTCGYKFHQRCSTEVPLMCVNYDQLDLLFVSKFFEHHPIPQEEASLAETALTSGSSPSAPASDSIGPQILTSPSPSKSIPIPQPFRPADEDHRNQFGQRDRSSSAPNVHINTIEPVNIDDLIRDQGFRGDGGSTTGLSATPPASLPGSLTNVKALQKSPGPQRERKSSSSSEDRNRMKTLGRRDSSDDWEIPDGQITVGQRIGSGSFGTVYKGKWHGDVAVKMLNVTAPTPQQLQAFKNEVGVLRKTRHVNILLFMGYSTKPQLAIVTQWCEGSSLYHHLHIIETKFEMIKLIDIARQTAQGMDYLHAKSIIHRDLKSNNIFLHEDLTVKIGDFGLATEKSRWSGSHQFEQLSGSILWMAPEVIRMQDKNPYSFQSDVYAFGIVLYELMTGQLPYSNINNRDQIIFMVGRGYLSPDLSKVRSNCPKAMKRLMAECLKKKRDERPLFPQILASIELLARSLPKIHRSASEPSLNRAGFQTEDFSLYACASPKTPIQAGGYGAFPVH
Sequence of G protein-coupled receptor kinase 4 (Homo sapiens) (P32298 whole entry, looked up): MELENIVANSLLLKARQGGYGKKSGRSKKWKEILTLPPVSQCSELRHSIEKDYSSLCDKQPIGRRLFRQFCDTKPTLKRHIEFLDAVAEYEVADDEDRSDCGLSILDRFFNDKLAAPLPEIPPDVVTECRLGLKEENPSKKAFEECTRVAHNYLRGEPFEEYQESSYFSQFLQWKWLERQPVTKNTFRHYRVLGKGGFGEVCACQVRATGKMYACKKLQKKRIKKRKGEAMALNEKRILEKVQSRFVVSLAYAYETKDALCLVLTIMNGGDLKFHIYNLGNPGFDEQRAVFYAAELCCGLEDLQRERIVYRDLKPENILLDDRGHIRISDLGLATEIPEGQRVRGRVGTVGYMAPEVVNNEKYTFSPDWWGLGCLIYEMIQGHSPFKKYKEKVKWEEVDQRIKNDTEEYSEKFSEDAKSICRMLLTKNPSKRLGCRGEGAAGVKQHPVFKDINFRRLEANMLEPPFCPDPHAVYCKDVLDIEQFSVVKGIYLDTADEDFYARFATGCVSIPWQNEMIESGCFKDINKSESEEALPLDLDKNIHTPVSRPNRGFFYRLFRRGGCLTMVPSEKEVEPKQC
Sequence of Serine/threonine-protein kinase B-raf (Homo sapiens) (P15056 whole entry): as the sequence (P15056 whole entry V600E) above, with E600V counted along it
Sequence of Misshapen-like kinase 1 (Q8N4C8 whole entry, looked up): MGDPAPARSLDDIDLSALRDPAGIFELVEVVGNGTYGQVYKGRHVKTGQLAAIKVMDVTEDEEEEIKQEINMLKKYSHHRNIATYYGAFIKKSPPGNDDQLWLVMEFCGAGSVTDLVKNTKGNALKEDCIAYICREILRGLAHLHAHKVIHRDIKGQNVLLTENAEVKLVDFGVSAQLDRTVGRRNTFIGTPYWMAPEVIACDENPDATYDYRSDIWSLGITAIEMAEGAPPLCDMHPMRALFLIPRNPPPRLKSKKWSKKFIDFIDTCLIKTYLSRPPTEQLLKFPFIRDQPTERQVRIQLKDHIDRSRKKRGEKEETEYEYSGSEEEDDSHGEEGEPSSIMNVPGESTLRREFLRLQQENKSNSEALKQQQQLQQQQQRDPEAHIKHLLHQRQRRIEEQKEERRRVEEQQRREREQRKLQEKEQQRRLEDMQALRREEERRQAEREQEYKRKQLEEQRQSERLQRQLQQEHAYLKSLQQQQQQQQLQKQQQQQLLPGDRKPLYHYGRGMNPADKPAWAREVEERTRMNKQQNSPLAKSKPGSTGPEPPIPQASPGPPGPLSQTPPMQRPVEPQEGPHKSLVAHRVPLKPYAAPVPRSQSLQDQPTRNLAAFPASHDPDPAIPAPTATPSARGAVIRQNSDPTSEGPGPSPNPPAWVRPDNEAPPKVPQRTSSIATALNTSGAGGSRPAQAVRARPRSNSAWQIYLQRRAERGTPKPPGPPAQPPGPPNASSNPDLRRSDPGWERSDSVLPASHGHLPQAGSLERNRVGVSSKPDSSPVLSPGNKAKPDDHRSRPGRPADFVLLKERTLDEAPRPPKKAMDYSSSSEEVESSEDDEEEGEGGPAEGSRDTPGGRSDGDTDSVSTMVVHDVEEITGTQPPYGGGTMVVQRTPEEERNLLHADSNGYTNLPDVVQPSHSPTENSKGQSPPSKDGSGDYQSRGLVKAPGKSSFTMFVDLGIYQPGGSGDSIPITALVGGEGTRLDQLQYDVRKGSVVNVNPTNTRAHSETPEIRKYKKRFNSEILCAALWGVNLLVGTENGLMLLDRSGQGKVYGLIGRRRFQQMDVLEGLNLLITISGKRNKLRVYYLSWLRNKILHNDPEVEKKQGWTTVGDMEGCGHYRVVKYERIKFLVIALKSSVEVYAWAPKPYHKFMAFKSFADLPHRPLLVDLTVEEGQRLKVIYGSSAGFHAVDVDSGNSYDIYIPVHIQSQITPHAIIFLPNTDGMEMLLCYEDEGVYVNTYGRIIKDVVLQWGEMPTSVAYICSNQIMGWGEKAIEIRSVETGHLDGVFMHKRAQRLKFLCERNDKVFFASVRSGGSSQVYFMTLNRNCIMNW
Sequence of Hepatocyte growth factor receptor (Homo sapiens), P08581 [M1250T] (P08581 whole entry M1250T): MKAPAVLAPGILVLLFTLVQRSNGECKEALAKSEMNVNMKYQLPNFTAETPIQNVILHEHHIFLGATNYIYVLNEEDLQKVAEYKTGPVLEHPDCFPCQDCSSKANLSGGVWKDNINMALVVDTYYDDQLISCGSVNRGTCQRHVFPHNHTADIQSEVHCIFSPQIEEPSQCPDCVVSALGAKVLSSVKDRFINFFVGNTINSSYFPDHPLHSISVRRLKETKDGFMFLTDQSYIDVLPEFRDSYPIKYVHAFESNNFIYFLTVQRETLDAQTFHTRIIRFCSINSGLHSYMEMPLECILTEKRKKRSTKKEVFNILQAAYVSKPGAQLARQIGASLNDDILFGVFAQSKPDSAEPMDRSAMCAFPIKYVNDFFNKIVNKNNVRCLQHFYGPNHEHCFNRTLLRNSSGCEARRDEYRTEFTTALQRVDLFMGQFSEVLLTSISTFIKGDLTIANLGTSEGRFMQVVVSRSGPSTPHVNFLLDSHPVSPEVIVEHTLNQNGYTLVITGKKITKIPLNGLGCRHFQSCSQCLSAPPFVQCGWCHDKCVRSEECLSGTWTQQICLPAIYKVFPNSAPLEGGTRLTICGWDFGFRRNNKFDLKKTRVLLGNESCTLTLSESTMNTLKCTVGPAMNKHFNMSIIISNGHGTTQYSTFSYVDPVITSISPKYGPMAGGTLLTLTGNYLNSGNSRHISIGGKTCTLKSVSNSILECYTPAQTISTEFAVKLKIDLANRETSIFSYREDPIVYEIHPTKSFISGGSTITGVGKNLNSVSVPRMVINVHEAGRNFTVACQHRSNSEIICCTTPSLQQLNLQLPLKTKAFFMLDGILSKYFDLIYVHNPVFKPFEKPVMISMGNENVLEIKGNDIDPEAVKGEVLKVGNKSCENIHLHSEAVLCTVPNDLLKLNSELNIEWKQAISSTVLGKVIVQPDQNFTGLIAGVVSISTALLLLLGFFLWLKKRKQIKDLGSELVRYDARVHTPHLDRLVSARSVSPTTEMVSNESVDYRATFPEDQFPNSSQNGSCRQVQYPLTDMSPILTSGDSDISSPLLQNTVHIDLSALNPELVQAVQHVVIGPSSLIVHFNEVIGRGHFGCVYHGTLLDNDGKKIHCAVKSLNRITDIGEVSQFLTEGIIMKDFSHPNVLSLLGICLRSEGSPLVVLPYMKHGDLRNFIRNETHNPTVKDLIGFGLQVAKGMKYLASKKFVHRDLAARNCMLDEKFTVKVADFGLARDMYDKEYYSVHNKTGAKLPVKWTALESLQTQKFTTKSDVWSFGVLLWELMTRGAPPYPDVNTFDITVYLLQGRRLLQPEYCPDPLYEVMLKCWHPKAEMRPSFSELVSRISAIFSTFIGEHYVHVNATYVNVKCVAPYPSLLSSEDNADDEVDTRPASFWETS
Sequence of Calcium/calmodulin-dependent protein kinase type 1G (Homo sapiens) (Q96NX5 whole entry): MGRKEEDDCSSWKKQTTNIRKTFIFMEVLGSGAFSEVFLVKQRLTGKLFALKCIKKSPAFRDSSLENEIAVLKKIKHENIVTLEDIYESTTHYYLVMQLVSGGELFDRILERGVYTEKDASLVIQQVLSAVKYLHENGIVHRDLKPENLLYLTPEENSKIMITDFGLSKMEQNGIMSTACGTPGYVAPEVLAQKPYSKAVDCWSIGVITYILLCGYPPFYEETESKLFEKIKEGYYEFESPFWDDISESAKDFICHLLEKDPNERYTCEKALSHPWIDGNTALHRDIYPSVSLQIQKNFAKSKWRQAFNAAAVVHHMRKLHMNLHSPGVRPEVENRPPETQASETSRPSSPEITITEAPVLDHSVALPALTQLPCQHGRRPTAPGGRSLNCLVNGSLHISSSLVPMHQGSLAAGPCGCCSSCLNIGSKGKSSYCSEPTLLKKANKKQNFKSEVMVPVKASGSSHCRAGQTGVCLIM

Consider `C=CC(=O)Nc1cccc(C(=O)Nc2ccc(Nc3cc(-c4[nH]c(SC)nc4C)ccn3)cc2)c1`, for which the % of control in [1] (at 1 µM) stood at 101%; in [1] (at 5 µM), 97%.
As to `Cc1cc([C@@H](C)Nc2ccccc2C(=O)O)c2nc(N3CCOCC3)cc(=O)n2c1` [AZD-6482], in [2], the % of control turned out to be 100%.
`CN(C)C/C=C/C(=O)Nc1ccc(C(=O)N2CCCC(Nc3ncc(Cl)c(-c4c[nH]c5ccccc45)n3)C2)cc1` (stereo not given): the % of control turned out to be 99% in assay [3] and 97% in assay [4].
With `CCN(CC)CCCCNc1ncc2cc(-c3cc(OC)cc(OC)c3)c(NC(=O)NC(C)(C)C)nc2n1`, the % of control in assay [5] is 100%.
As for `CCC(=O)N1CCN(c2ccc(-n3c(=O)ccc4cnc5ccc(-c6cnc7ccccc7c6)cc5c43)cc2C(F)(F)F)CC1`, the % of control stood at 22% in [6] and 97% in [7].
`COc1cc(Nc2nc(C)cc(-c3cnn4nc(OC)ccc34)n2)cc(C(F)(F)F)c1`: the % of control in assay [8] was 94%; in assay [9], 59%. Also, in assay [10], the IC50 (usually the concentration needed to halve the response being measured) was > 10 µM.
As for `Cc1cc(F)c(C(=O)Nc2cccc(-c3nncn3C(C)C)n2)cc1-n1cnc(C2CC2)c1`, the % of control was 85% in assay [11] and 100% in assay [12].
Take `CC(=O)c1cc(-c2ccccc2OCC2CC2)c2ncccn12`: the % of control in assay [13] was 91%.
Take `C=CC(=O)Nc1cc(-n2c(=O)ccc3cnc4ccc(-c5ccc(NS(C)(=O)=O)cc5)cc4c32)ccc1C`: the % of control stood at 100% in assay [14] (at 1 µM); 100% in assay [14] (at 10 µM); 100% in assay [15] (at 1 µM); 100% in [15] (at 10 µM); 100% in [16] (at 1 µM); 73% in assay [16] (at 10 µM).
In the case of `O=C(NOC[C@H](O)CO)c1ccc(F)c(F)c1Nc1ccc(I)cc1F`, in assay [17], the % of control came to 100%.
As for `Cn1cc(-n2cnc3c(NCc4nc5cc(Cl)c(Cl)cc5[nH]4)nc(N4CCOCC4)nc32)cn1`, the % of control was -11.4% in assay [18] and 1.3% in assay [19].
For the compound `CNC(=O)Nc1ccc(-c2nc(N3CC4CCC(C3)O4)c3cnn(C4CCC5(CC4)OCCO5)c3n2)cc1`, the % of control in [20] was 88%.
Consider `CC[C@@H]1[C@H](F)C(=O)N[C@@H]1COc1nccc2cc(C(N)=O)c(OC)cc12` [ZIMLOVISERTIB], for which the % of inhibition is 3.9% in assay [21]; 11.7% in assay [22] (at 0.01 µM); -9.5% in assay [22] (at 0.04 µM); -6.6% in assay [22] (at 0.2 µM); 4% in [22] (at 1 µM); 0.1% in assay [22] (at 5 µM). The % of inhibition in assay [23] is 8.76%.
Regarding `CCc1cccc(CC)c1NC(=O)c1nn(C)c2c1CCc1cnc(Nc3ccc(C(=O)NC4CCN(C)CC4)cc3OC(F)(F)F)nc1-2`, the IC50 in assay [24] was > 10 µM.
As for `COc1cc(N(C)c2ccnc3ccc(C(F)(F)F)cc23)cc(OC)c1OC`, the % binding in assay [25] was 95%.
In the case of `COCC(=O)NC/C=C/c1ccc2ncnc(Nc3ccc(Oc4ccc(C)nc4)c(C)c3)c2c1` [CP-724714], in [26], the % of control was 93%.
Turning to `O[C@H]1CC[C@H](Nc2ncc3nc(Nc4c(F)cc(F)cc4F)n([C@H]4CCOC4)c3n2)CC1`, the % of control in [27] amounted to 42%.
